Measurements published in publication PMC8536644, “Enigmatic mechanism of the N-vinylpyrrolidone hepatocarcinogenicity in the rat” (Archives of Toxicology, 2021).
Where “and” joins values, the source holds several entries; their conditions need not be identical. Equal entries are not always repeated.

Assays:
[1] = test system: rat liver cells; assay: Trypan Blue viability of the single cell suspension, liver; type: in vivo; details: Wistar, rat, in vivo, po, 200 mg/kg, 24 h
[2] = as above; type: in vivo, rat; details: Wistar, rat, in vivo, po, 200 mg/kg
[3] = test system: rat liver cells; assay: Comet assay, conventional (no FPG), liver; details: for Increase of the TI vs vehicle control: p ≤ 0.01; for Hedgehogs/100 cells (mean ± SD) / TI (%) (mean ± SD) / TI (%), mean of medians from 2 slides: liver, 200 mg/kg bw oral, once; for TI (%), mean of medians from 2 slides: individual animals
Description: Animals were anesthetized by 3.5% isoflurane (approximately 3 min, evaporator Dräger Vapor 19.3) and then killed by cervical dislocation. The liver was removed and its left lateral lobe used for the Comet assay. The remainder of the liver was washed in saline and then in two aliquots shock frozen in liquid nitrogen and stored at − 80 °C for later examinations. Subsequently the lung was removed from the dead animal. Its left lobe was used for the Comet assay and the remainder treated as described above for the liver. Thereafter the femora were removed for the preparation of the bone marrow.
The Comet assay was performed under alkaline conditions according to the principles described by Singh et al. ([1988]) and Tice et al. ([2000]).
Liver and lung cells were obtained essentially as described by Hartmann et al. ([2004]) and by the Japanese Center for the Validation of Alternative Methods (JaCVAM [2009]). Single cells were obtained within 1 h after killing of the animals in order to minimize DNA damage during the preparation.
The organ parts (see above) were washed in mincing buffer (50 mM EDTA in HBSS [without Ca^2+ and Mg^2+] pH 7.5: DMSO 9:1 (v/v), the latter added shortly before use, stored at 4 °C), cut into 1 to 2-mm pieces in ice-cold mincing buffer and transferred to a cell sieve with 70-µm pores. The viability of the cell suspension was evaluated by the Trypan Blue Assay (Strober [2001]).
100 µL of the obtained cell suspension was mixed at 37 °C with 900 µL Low Melting Agarose (LMA) (0.7% agarose in phosphate-buffered saline [PBS] [Biochrom, Berlin, Germany] without Ca^2+ and Mg^2+). 100 µL of this mixture was transferred to a slide, which had been coated with Normal Melting Agarose (NMA) (0.6% agarose in PBS without Ca^2+ and Mg^2+). The slides were protected with a cover slip and the agarose was hardened at approximately 4 °C. The cover slips were then removed and the slides put over night at 4 °C into lysis buffer (2.5 M NaCl, 125 mM NaOH, 127 mM EDTA, 10 mM Tris/NaOH, pH 10; 1% Triton X-100 and 10% DMSO (v/v), the latter two added before use) in order to lyse the cell membrane, nuclear membrane and remove the histone.
The then following procedures were performed in a shaded room to minimize UV-mediated DNA damage during the procedures.
Remaining lysis buffer or FPG buffer was removed by immersing/washing the slides in PBS (without Ca^2+ and Mg^2+).
The slides were then placed into the electrophoresis chamber, which was cooled and protected from light. Slides were covered with electrophoresis buffer (0.3 M NaOH, 1 mM EDTA, pH > 13) carefully avoiding air bubbles. The DNA was allowed to unwind (20 min). Thereafter the electrophoresis was started (25 V, 300 mA, […], 30 min). The slides were then washed (2 times 5 min) in neutralization buffer (0.4 M Tris/HCl, pH 7.5), dehydrated and fixed in 100% ethanol (1 min), dried at room temperature overnight and stored at room temperature protected from dust.
Quantitative evaluation of the Comet assays was performed by fluorescence microscopy after DNA staining with ethidium bromide.

[4] = Trypan Blue viability of the single cell suspension, lung; type: in vivo, rat; details: Wistar, rat, in vivo, po, 200 mg/kg
[5] = test system: polychromatic erythrocytes of rat bone marrow; details: in vivo; cited from earlier work
[6] = female, Individual viability (%)
[7] = female, Viability (%) (mean ± SD)
[8] = male, Viability (%) (mean ± SD)

## CCOS(C)(=O)=O [EMS, ethyl methanesulfonate, reference compound]
[1]; female
  Individual viability (%): 97%
[1]; male
  Individual viability (%): 94%
[2]; [6]
  viability at 24 h: 99%
[2]; [7]
  viability at 24 h: 96 ± 2%
[2]; male, Individual viability (%)
  viability at 24 h: 91%
[2]; [8]
  viability at 24 h: 95 ± 3%
[3]; 200 mg/kg body weight
  Tail intensity, liver, positive controls of the present study: 17–19%
[3]; liver cells, female, no FPG, 200 mg/kg
  Increase of the TI vs vehicle control: 28 fold
[3]; liver cells, male, no FPG, 200 mg/kg
  Increase of the TI vs vehicle control: 27 fold
[3]; liver cells, no FPG, 200 mg/kg
  Hedgehogs per 100 cells, averaged for both genders: 7.5 per 100 cells
[3]; female, no FPG
  Hedgehogs/100 cells (mean ± SD): 7 ± 4 /100 cells
  TI (%) (mean ± SD): 16.3 ± 4.49%
[3]; female, no FPG, 200 mg/kg
  TI (%), mean of medians from 2 slides: 9.1% and 13.6% and 17.5% and 22.4% and 17.8% and 17.3%
[3]; male, no FPG
  Hedgehogs/100 cells (mean ± SD): 8 ± 2 /100 cells
  TI (%) (mean ± SD): 18.6 ± 5.97%
[3]; male, no FPG, 200 mg/kg
  TI (%), mean of medians from 2 slides: 18.9% and 17.5% and 29.0% and 10.6% and 19.3% and 16.4%
[4]; [6]
  viability at 24 h: 99%
[4]; [7]
  viability at 24 h: 99 ± 1%
[4]; male, Individual viability (%)
  viability at 24 h: 99%
[4]; [8]
  viability at 24 h: 99 ± 1%
[5]
  Micronuclei in PCE, historical positive controls: 6.1–21.9 ‰
